Data as given in the NIST ThermoML archive (doi:10.1021/acs.jced.8b00176).

Experiment: xn = mol fraction of the nth substance listed
Details: 100 kPa, Liquid; for viscosity: Falling or rolling sphere viscometry; for speed of sound: Frequency=3 MHz, Single path-length method; for mass density: Vibrating tube method

CCCCn1cc[n+](C)c1.O=S(=O)([O-])C(F)(F)F [1-butyl-3-methylimidazolium trifluoromethanesulfonate] + CN(C)C=O
Details	mass density, 313.15 K [kg/m3]	mass density, 318.15 K [kg/m3]	mass density, 323.15 K [kg/m3]	speed of sound, 313.15 K [m/s]	speed of sound, 318.15 K [m/s]	speed of sound, 323.15 K [m/s]	viscosity, 313.15 K [mPa·s]	viscosity, 318.15 K [mPa·s]	viscosity, 323.15 K [mPa·s]
x1 = 0.1087	1027.69	1022.88	1018.08	1398.1	1381.2	1364.5	1.44	1.34	1.26
x1 = 0.203	1085.84	1081.13	1076.42	1390.4	1375	1359.6	2.64	2.4	2.2
x1 = 0.2978	1129.15	1124.56	1119.97	1381.4	1367	1352.6	3.81	3.47	3.17
x1 = 0.409	1168.33	1163.87	1159.41	1373.6	1360.1	1346.7	6.01	5.41	4.88
x1 = 0.4969	1193.03	1188.67	1184.31	1369.7	1356.8	1344	8.71	7.74	6.89
x1 = 0.603	1217.94	1213.69	1209.43	1365.6	1353.3	1341.1	13.22	11.6	10.21
x1 = 0.699	1237.03	1232.85	1228.67	1363	1351.2	1339.5	19.53	16.84	14.64
x1 = 0.809	1256.31	1252.21	1248.11	1361.7	1350.3	1339.1	29.38	24.86	21.29
x1 = 0.8928	1269.5	1265.45	1261.4	1360.9	1349.7	1338.7	37.11	31.09	26.39
x1 = 1	1285.47	1281.47	1277.48	1360.7	1349.9	1338.8	43.67	36.29	30.57
